The results in this text go back to PMC11796242, “Nitidine chloride inhibits the progression of hepatocellular carcinoma by suppressing IGF2BP3 and modulates metabolic pathways in an m^6A-dependent manner” (Molecular Medicine, 2025).

The target of the assay is T1, IGF2BP3 (Homo sapiens, UniProt O00425).
T1 construct: immobilised by amine coupling on CM5 chip (PDB 6GQE used only for docking)
Put plainly: SPR (BIAcore T200, CM5 chip, immobilised IGF2BP3, […] Langmuir global fit). The assay is classed as binding.

Broadly, the Kd is a measure of binding affinity in units of concentration.

T1 sequence (O00425 whole entry): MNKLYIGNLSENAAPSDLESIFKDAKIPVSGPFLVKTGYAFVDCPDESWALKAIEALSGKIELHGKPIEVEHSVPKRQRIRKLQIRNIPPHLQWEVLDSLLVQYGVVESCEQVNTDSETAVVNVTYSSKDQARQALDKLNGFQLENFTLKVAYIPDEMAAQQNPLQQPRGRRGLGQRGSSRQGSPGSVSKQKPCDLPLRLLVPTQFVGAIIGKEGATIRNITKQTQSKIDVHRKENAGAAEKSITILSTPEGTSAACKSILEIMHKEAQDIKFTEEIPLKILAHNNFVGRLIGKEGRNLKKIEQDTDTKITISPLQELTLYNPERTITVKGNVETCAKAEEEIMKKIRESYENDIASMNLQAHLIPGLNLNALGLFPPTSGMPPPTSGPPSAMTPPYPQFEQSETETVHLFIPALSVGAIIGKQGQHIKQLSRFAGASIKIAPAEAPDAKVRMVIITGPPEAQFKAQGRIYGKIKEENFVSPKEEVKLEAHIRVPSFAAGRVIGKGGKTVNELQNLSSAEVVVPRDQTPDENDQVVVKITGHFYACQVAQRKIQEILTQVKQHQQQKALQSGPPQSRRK

As to `COc1cc2c[n+](C)c3c4cc5c(cc4ccc3c2cc1OC)OCO5` [nitidine chloride], the Kd amounted to 6.37 µM.
